Data set [1] concerns the target T1, Amine oxidase [flavin-containing] A (Homo sapiens, UniProt P21397).
T1 sequence (P21397 whole entry): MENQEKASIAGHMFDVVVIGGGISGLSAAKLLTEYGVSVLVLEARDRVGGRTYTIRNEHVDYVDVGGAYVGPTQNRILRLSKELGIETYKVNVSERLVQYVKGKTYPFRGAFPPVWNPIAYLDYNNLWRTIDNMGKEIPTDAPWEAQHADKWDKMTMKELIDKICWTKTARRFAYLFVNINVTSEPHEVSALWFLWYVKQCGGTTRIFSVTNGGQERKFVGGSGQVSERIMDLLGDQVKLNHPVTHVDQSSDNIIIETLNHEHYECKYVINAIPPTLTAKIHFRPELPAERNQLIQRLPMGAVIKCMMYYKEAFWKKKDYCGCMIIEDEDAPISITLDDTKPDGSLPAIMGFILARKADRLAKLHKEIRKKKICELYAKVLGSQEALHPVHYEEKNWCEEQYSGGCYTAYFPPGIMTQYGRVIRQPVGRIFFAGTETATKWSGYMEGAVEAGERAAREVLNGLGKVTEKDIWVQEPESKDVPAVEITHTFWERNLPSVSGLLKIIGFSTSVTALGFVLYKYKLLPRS
The data set is described as follows: Inhibition of recombinant human MAO-A expressed in baculovirus infected insect cells using aminoproplyether of luciferin methyl ester as substrate after 90 mins by chemiluminescence assay.

For data set [2], the target named is T1, Amine oxidase [flavin-containing] A. The data set is described as follows: Inhibition of recombinant human MAO-A assessed as residual activity at 1.1 uM using kynuramine as substrate after 30 mins by spectrophotometric method relative to control. The settings on record: 0.5 h, read-out: Activity.
Data set [3] shares this target. The data set is described as follows: Reversible inhibition of recombinant human MAO-A assessed as residual activity at 1.1 uM using kynuramine as substrate preincubated for 30 mins followed by dialysis for 6 hrs by spectrophotometric method relative to control. The settings on record: read-out: Activity.
Data set [4] shares this target. The data set is described as follows: Inhibition of recombinant human MAO-A using kynuramine as substrate incubated for 20 mins by spectrophotometric method.
For data set [5] the target is unchanged. The data set is described as follows: Inhibition of recombinant human MAO-A assessed as residual activity at 20 uM using kynuramine as substrate incubated for 20 mins by spectrophotometric method relative to control. As to conditions: read-out: Activity.
Data set [6] has as its target T2, Amine oxidase [flavin-containing] B (Homo sapiens, UniProt P27338).
T2 sequence (P27338 whole entry): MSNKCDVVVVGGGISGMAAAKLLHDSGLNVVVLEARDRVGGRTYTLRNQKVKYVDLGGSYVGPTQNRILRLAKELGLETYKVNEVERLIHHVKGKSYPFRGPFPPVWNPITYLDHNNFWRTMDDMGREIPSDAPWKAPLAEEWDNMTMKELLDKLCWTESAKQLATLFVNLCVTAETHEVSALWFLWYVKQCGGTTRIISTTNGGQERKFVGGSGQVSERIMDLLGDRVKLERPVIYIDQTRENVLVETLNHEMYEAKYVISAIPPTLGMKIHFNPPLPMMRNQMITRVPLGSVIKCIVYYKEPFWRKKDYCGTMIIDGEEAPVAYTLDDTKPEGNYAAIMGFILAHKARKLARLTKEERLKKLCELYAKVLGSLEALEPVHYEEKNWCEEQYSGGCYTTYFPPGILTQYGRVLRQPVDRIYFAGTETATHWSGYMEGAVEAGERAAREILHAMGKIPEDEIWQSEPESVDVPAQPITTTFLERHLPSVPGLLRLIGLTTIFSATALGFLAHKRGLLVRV
Put plainly: Inhibition of recombinant human MAO-B using benzylamine as substrate incubated for 30 mins by spectrophotometric method.

Data set [7] deals with T2, Amine oxidase [flavin-containing] B. Put plainly: Inhibition of recombinant human MAO-B assessed as residual activity at 20 uM using benzylamine as substrate incubated for 30 mins by spectrophotometric method relative to control. The settings on record: 0.5 h, read-out: Activity.
The target of data set [8] is T1, Amine oxidase [flavin-containing] A. Put plainly: Inhibition of recombinant human MAO-A using kynuramine as substrate by spectrophotometric method. The settings on record: TDE = time-dependent effect.
The target is the same in data set [9]. The data set is described as follows: Competitive inhibition of recombinant human MAO-A using kynuramine as substrate by Lineweaver-Burk plot analysis.
The species entered for a further data set is Homo sapiens. The data set is described as follows: Selectivity index, ratio of IC50 for recombinant human MAO-B to IC50 for recombinant human MAO-A.

Bounds are passed on as bounds.

Results on eleven compounds are retold here after ChEMBL document CHEMBL4118277, “Selective inhibition of monoamine oxidase A by chelerythrine, an isoquinoline alkaloid” (Bioorg Med Chem Lett, 2018).

Turning to `COc1cc(-c2[o+]c3cc(O)cc(O)c3cc2O)cc(OC)c1O` [MALVIDIN CHLORIDE], the IC50 in [1] came to 22.1 µM.

As for `C#CCN(C)CCCOc1ccc(Cl)cc1Cl` [CLORGILINE], the activity at 1.1 µM in data set [2] stood at 17.3%; in data set [3], 18.3%.

`COc1cc2c(cc1OC)[C@@H]1Cc3ccc(O)c(OC)c3CN1CC2`: the IC50 in data set [4] and in data set [6] was over 20 µM each time. Also, the activity at 20 µM in [5] was found to be 85.6%; in data set [7] it was 92.8%.

Consider `COc1ccc2c(c[n+](C)c3c4cc5c(cc4ccc23)OCO5)c1OC` [CHELERYTHRINE], for which the IC50 is 0.55 µM in data set [4] and over 20 µM in data set [6]. The activity at 20 µM in data set [5] turned out to be 28.3%; in [7], 94.3%. For the same compound, the activity at 1.1 µM worked out at 28.5% in data set [2] and 75% in data set [3]. For the same compound, the “inhibition (INH)” value in data set [8] was “Tde”. Further, the Ki in data set [9] is 0.22 µM. For the same compound, in the data set listed under Homo sapiens, the Ratio IC50 is over 36.4.

Consider `CN1Cc2c(ccc3c2OCO3)[C@@]2(C)[C@@H](O)Cc3cc4c(cc3[C@@H]12)OCO4`, for which the IC50 in [4] and in [6] was over 20 µM each time. Also, the results for the activity at 20 µM in data set [5] and in data set [7] were 87.9% and 87.6%, respectively.

Take `COc1cc2c(cc1O)[C@H]1Cc3ccc(OC)c(OC)c3CN1CC2`: the IC50 in data set [4] and in data set [6] was over 20 µM throughout. The activity at 20 µM in data set [5] amounted to 93.4%; in [7], 91.4%.

As for `COc1cc2c(cc1OC)-c1c(OC)c(OC)cc3ccnc(c13)C2=O` [OXOGLAUCINE], the IC50 in data set [4] and in data set [6] was over 20 µM each time. The results for the activity at 20 µM in data set [5] and in [7] were 89.7% and 64.9%, respectively.

Regarding `COc1ccc(-c2cc(=O)c3c(O)cc(O)cc3o2)cc1`, the Ratio IC50 in the data set filed under Homo sapiens is 0.89.

Regarding `Cc1cccc(N2CC(CO)OC2=O)c1` (stereo unspecified) [TOLOXATONE], the activity at 1.1 µM was determined as 30.7% in [2] and 75.4% in [3].

For the compound `COc1cc2c(cc1OC)[C@@H]1[C@H](C)c3ccc(OC)c(OC)c3CN1CC2`, the IC50 in data set [4] is over 20 µM; in data set [6] it was 24.1 µM. Besides, the figures for the activity at 20 µM in [5] and in data set [7] were 79.5% and 54.7%, respectively.

For `O=C1/C(=C/c2ccc(O)cc2)Oc2cc(O)ccc21`, the Ratio IC50 in the data set filed under Homo sapiens was determined as 9.4.
